Where “and” joins values, the source holds several entries; their conditions need not be identical. Identical values can stand only once. Counter-ions that a name gives are not always drawn. Calls of active or inactive are those of the source.
How the values were obtained:
[1] = ZM109 Env clade C HIV-1 fusion inhibitors, dose response, HeLa effector, CEM target cells, luciferase, cherry-pick (AID 652058); format: functional, cell-based
[2] = inhibitors of clade B AD8 Env fusion, dose response, cell-based, cherry-pick (AID 652062); format: functional;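 further: luciferase signal from cell-cell fusion driven by HIV-1 clade B AD8 Env; potency is for inhibitors of fusion seen as a drop in luminescence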
[3] = Luminescence Cell-Based Dose Retest to Confirm Inhibitors of Cancer Stem Cells. [Related pubchem assays (depositor defined):AID2717, AID2721]; format: functional; settings: Homo sapiens
HEK293 = assay: inhibitors of LMP1-driven NF-kB reporter, dose response, cell-based, HEK293, luciferase, cherry-pick (AID 588343); format: functional; settings: Homo sapiens
[4] = target: T1, Heat shock factor protein 1 (Mus musculus, UniProt P38532); assay: inhibition of MG132-induced HSE-luciferase signal, confirmation, cell-based, NIH3T3, luminescence, dose retest (AID 2382); format: functional;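 further: NIH3T3 fibroblasts with HSF1-driven luciferase reporter stressed by proteasome inhibitor MG132; luminescence from HSF1-driven luciferase expression after 8 hours of MG132 stress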
T1 sequence (P38532 whole entry): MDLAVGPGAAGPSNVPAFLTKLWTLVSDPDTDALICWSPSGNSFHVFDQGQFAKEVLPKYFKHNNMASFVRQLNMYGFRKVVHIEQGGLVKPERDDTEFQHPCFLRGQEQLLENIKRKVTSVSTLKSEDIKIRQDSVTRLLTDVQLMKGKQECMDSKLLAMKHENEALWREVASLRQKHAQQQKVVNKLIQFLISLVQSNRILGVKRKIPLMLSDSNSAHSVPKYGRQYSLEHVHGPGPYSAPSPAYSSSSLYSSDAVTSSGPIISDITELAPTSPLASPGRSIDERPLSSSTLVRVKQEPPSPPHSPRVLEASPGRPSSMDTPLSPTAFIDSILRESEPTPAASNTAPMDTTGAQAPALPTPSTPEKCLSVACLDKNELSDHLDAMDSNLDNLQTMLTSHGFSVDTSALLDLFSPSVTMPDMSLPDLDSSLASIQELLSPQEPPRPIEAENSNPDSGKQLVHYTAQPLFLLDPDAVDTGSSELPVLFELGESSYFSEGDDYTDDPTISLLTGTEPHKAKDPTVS

Fatty acid synthase [5] = target: T2, Fatty acid synthase (Homo sapiens, UniProt P49327); assay: FAS thioesterase domain inhibitors, dose response, biochemical, endpoint fluorescence intensity, uHTS hits (AID 624327); format: functional;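 further: fluorescence from hydrolysis of an O-methyl fluorescein acyl ester substrate by the enzyme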
T2 sequence (P49327 whole entry, the tested form may be a part): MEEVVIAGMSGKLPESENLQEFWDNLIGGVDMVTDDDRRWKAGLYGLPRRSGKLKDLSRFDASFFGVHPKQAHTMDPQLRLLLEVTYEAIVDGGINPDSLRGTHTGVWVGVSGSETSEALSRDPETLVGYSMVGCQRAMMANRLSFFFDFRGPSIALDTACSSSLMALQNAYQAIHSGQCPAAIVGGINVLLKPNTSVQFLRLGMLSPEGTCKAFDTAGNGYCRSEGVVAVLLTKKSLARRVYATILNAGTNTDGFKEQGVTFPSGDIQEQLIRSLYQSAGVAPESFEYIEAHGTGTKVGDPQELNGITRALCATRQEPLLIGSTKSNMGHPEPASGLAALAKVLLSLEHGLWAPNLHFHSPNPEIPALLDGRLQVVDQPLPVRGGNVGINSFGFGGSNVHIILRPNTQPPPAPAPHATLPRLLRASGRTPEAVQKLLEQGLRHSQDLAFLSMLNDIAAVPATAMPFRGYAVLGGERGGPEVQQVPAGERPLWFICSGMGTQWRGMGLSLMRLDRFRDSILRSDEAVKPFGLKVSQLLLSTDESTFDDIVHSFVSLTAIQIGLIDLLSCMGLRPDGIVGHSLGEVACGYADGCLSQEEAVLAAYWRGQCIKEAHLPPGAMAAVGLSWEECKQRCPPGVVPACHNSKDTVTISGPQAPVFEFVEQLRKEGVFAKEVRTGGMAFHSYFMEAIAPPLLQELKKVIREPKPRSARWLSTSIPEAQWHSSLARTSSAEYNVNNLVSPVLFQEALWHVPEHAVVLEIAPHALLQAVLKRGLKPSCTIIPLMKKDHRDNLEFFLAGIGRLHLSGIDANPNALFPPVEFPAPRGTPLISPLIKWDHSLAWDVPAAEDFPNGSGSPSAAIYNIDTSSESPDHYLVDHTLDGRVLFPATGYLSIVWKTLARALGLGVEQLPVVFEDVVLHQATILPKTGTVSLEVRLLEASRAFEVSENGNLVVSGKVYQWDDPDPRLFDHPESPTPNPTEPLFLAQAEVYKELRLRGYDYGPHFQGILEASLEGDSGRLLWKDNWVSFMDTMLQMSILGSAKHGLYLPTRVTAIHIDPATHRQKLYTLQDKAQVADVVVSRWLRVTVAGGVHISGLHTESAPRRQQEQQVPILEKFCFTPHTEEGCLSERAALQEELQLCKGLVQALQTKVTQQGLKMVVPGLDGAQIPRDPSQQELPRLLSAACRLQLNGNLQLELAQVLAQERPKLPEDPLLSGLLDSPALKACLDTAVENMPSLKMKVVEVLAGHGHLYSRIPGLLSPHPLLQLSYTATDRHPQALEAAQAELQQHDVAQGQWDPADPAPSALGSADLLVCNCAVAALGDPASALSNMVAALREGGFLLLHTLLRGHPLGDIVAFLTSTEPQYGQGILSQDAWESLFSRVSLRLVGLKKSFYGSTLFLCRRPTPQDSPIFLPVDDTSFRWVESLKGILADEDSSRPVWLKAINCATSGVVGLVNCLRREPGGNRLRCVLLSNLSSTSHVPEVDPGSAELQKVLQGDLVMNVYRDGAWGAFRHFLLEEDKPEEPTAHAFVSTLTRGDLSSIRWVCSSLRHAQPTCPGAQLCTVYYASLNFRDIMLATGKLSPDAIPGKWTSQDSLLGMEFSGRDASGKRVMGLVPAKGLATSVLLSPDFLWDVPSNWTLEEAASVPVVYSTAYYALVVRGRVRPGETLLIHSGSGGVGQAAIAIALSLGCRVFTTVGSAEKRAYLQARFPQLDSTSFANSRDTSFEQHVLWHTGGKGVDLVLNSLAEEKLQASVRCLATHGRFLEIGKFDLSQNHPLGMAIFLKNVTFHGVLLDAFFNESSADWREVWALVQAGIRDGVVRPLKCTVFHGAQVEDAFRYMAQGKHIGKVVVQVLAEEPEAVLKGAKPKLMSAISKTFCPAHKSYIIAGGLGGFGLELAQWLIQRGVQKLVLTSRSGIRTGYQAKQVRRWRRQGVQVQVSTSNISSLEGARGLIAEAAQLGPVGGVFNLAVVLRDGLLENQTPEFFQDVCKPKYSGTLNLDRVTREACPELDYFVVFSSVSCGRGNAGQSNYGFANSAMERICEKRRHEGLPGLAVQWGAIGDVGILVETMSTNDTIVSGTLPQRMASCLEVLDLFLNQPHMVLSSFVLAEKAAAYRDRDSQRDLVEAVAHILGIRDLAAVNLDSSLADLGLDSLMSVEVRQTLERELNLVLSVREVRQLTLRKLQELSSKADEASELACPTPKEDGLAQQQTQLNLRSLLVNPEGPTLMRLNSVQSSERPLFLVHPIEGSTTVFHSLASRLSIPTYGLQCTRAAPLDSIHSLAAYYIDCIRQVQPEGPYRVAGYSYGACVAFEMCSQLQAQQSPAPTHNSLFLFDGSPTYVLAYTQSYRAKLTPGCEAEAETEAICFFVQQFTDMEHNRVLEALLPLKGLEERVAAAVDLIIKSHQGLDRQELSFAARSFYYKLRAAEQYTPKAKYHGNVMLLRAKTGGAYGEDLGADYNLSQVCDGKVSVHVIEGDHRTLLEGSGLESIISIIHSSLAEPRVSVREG

Fatty acid synthase [6] = target: T2, Fatty acid synthase; assay: FAS thioesterase domain inhibitors, dose response, biochemical, kinetic fluorescence intensity (AID 624326); format: functional;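 further: rate of fluorescence rise from hydrolysis of a fluorogenic O-methyl fluorescein ester substrate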
Albumin = Albumin (Bos taurus, UniProt P02769); assay: Counterscreen for inhibitors of T-cell receptor (TCR)-CD3 interaction: Fluorescence-based biochemical high throughput dose response assay to identify inhibitors of T-cell receptor (TCR)-CD3 interaction using a TAMRA-labeled BSA probe.; format: functional
[7] = target: Voltage-gated inwardly rectifying potassium channel KCNH2 (Homo sapiens, UniProt Q12809); settings: Potency;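 further: confirmatory quantitative high-throughput screen measuring inhibition of hERG channel activity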
Voltage-gated inwardly rectifying potassium channel KCNH2, sequence (Q12809 whole entry): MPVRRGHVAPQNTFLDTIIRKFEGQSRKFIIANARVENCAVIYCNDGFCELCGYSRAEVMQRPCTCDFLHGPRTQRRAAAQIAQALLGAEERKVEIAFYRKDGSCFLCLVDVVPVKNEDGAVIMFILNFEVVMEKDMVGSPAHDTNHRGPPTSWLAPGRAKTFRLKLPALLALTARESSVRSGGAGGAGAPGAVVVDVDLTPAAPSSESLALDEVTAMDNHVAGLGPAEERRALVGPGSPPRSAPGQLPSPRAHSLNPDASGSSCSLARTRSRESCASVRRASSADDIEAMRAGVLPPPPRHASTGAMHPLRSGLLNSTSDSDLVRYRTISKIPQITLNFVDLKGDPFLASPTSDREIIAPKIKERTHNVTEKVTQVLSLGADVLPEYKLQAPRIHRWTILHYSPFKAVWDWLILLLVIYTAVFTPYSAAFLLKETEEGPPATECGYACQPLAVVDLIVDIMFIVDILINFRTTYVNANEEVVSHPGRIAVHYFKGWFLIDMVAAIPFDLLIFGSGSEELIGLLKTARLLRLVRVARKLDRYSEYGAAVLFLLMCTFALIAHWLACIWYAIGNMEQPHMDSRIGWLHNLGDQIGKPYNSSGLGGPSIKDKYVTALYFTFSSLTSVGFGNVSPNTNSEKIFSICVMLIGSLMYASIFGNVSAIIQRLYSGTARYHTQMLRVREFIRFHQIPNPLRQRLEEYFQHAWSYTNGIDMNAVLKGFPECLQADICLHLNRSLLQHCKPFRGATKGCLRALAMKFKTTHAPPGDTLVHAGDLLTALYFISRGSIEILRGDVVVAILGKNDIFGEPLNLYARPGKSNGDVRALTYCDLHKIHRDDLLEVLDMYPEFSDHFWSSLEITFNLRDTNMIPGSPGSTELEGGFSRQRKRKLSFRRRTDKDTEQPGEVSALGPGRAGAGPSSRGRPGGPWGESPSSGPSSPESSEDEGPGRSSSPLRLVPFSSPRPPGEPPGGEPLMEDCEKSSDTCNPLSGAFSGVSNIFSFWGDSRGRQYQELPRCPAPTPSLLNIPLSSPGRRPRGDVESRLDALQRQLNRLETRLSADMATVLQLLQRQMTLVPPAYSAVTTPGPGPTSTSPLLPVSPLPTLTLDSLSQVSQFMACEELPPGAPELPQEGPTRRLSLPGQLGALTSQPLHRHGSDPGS

Cytochrome P450 2C9 [8] = target: T3, Cytochrome P450 2C9 (Homo sapiens, UniProt P11712)
T3 sequence (P11712 whole entry): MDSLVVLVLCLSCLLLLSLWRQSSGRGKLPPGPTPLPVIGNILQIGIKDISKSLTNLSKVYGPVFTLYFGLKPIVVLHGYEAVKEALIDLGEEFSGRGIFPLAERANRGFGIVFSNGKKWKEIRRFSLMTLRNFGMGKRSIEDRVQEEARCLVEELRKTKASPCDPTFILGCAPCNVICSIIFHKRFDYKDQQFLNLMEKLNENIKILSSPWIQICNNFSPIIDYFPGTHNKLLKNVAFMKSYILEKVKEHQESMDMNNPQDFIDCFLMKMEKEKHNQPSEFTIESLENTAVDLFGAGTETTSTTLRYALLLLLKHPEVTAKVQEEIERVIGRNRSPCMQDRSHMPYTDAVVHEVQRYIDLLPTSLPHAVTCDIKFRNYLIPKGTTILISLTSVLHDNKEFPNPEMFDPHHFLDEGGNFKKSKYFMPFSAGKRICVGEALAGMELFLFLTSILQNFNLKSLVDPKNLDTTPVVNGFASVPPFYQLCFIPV

Cytochrome P450 3A4 = Cytochrome P450 3A4 (Homo sapiens, UniProt P08684);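 further: CYP3A4 tested as one member of a cytochrome P450 panel screen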
Cytochrome P450 3A4, sequence (P08684 whole entry): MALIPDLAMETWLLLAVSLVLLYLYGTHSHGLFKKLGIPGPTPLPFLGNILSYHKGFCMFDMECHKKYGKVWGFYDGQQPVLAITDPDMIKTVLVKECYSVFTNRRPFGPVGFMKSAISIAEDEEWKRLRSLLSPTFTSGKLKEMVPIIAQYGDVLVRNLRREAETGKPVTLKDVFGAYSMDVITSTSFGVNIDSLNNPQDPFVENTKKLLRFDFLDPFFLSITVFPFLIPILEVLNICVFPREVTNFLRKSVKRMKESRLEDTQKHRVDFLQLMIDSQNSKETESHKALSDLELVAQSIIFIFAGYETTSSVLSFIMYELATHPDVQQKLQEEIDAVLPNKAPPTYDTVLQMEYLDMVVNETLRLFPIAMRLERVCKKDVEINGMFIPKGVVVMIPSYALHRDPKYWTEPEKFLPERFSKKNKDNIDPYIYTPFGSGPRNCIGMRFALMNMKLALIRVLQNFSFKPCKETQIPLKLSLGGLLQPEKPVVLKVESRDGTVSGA

Cytochrome P450 2C9 [9] = target: T3, Cytochrome P450 2C9; remark: listed apart in the source
[10] = cytotoxicity in HEK-293T cells, dose response, cytotoxicity control for BCR NF-kB inhibitor project, luminescence, B-cell screen hits (AID 489021); format: functional, cell-based;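 further: HEK-293T cells carrying an NF-kB luciferase reporter; cells exposed to compound for about 14 hours before viability readout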
[11] = target: FAD-linked sulfhydryl oxidase ALR (Homo sapiens, UniProt P55789); assay: inhibitors of human ALR sulfhydryl oxidase, dose response, biochemical, H2O2 detection, luminescence, cherry-pick (AID 493248)
FAD-linked sulfhydryl oxidase ALR, sequence (P55789 whole entry, the tested form may be a part): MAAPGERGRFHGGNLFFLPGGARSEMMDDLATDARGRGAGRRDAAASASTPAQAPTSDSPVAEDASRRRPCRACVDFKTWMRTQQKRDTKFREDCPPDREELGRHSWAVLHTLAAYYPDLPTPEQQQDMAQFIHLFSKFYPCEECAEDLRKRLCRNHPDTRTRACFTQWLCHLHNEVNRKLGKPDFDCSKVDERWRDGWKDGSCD

[12] = inhibitors of HIV Env-driven cell fusion, dose response, cherry-pick (AID 652057); format: functional, cell-based
[13] = intracellular Trypanosoma cruzi inhibitors in host cells – cell-based, plate reader, cherry-pick samples, set 3, dose response (AID 651818); format: functional;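 further: compounds incubated with infected cells for about four days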
[14] = target: Heat shock protein HSP 90-alpha (Homo sapiens, UniProt P07900); format: functional, organism-based
[15] = target: T4, Microphthalmia-associated transcription factor (Homo sapiens, UniProt O75030); assay: TRPM1 promoter luciferase signal decrease, dose response, MITF inhibitor project, cell-based, SK-MEL-5, cherry-picked, set 3 (AID 493073); format: functional
T4 sequence (O75030 whole entry): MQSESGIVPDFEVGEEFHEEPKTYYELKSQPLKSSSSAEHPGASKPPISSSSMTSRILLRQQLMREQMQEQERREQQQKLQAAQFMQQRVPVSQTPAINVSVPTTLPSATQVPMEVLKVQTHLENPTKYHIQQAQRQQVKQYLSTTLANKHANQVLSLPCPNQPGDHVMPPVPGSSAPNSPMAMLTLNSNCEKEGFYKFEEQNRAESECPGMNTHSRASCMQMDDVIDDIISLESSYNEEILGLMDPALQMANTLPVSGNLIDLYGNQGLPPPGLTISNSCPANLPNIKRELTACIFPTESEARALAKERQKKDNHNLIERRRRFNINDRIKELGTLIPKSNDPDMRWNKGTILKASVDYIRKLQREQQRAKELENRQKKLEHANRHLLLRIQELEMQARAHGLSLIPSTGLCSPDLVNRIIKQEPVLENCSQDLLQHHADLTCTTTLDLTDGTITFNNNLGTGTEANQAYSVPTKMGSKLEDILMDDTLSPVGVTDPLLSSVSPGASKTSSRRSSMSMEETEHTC

[16] = HEp-2 cell cytotoxicity, dose response, cytotoxicity control for RSV inhibitor project, HTS (AID 2410); format: functional; settings: human respiratory syncytial virus
INS1 = assay: beta cell apoptosis inhibitors, cytokine rescue, dose response, luminescence, retest (AID 449756); format: functional, cell-based; settings: Rattus norvegicus;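 further: cell death triggered by IL-1 beta plus TNF-alpha plus IFN-gamma mixture; protective hits raise ATP signal compared with cytokine alone wells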
[17] = inhibitors of intracellular T. cruzi replication, confirmation, NIH3T3 host cells, beta-gal luminescence (AID 2044); format: functional, cell-based;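 further: intracellular parasites grown in NIH/3T3 mouse fibroblasts as host cells; luminescent beta-galactosidase reporter signal from transgenic T. cruzi replicating inside host cells; inhibitors lower the luminescence signal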
[18] = control 3'UTR Renilla luciferase suppression, dose response, counter-screen for Shn3 inhibitor project, cell-based, Clone20-Shn3RL, cherry-picked (AID 624133); format: functional
Nonstructural protein 1 = Nonstructural protein 1 (Influenza A virus, UniProt Q194T2); format: functional, Influenza A virus (A/California/07/2009(H1N1))
Nonstructural protein 1, sequence (Q194T2 whole entry): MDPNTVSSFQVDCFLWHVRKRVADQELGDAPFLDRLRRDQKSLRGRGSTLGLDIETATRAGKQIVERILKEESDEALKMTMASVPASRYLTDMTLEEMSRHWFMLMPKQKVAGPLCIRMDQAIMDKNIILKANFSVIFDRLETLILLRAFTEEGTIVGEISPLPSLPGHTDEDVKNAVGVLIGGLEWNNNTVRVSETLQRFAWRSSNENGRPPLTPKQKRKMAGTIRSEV

cells [19] = format: functional, cell-based
[20] = HepG2 cell cytotoxicity, dose response, cytotoxicity control for Shn3 inhibitor project, CellTiter-Glo, cherry-picked (AID 624134); format: functional, cell-based
[21] = Shn3 3'UTR reporter inhibitors, dose response, cell-based, Clone20 osteoblasts, firefly luciferase, cherry-picked (AID 624132); format: functional;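 further: firefly luciferase luminescence from reporter carrying the Shn3 3'UTR in osteoblasts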
[22] = cytotoxicity toward NIH3T3 fibroblasts, dose response, counter-screen, cell-based, ATP luminescence, mouse fibroblasts (AID 2010); format: functional;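 further: cells exposed to compound for about 90 hours before reading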
H9c2 = assay: cells; format: functional, cell-based; settings: Rattus norvegicus, H9c2, Myocardium;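 further: confirmatory concentration-response retest of ultra-high-throughput screening hits for modulation of myocardial damage; cell death induced by hydrogen peroxide oxidative stress; compound pretreatment for 60 min then peroxide exposure for 2 h; potency is for protecting the cells against peroxide damage rather than for killing them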
cells [23] = format: functional, cell-based; remark: listed apart in the source
[24] = M. tuberculosis H37Rv growth inhibitors, H37Rv strain (AID 1626); format: functional

SMILES: O=C(C[C@H]1C[C@H]2c3cc(NC(=O)NC4CCCC4)ccc3O[C@H]2[C@@H](CO)O1)NC1CCCCC1
- AC50 [1]: 24.5 µM (active)
- AC50 [2]: 1.17 µM (active)

SMILES: OCCN(CCO)CC(O)COc1ccc(C23CC4CC(CC(C4)C2)C3)cc1 (configuration not stated)
- AC50 [3]: 1.05 µM (active)
- AC50 (HEK293): 7.62 µM (active)
- EC50 [4]: 3.11 µM (active)

SMILES: O=C(NC(C(=O)N/N=C/c1cc([N+](=O)[O-])ccc1O)c1nnc(O)c2ccccc12)c1ccccc1 (configuration not stated)
- IC50 (Fatty acid synthase [5]): 2.76 µM (active)
- IC50 (Fatty acid synthase [6]): 2.55 µM (active)
- IC50 (Albumin): > 94.1 µM (inactive)

SMILES: NCCc1ccc(S(=O)(=O)F)cc1 [4-AMINOETHYLBENZENESULFONYL FLUORIDE HYDROCHLORIDE]
- AC50 [7]: 0.251 µM (inconclusive)

SMILES: COc1[nH]c2ccc(F)cc2c1C(=O)OCC1CCN(CCNS(C)(=O)=O)CC1.NS(=O)(=O)O
- AC50 (Cytochrome P450 2C9 [8]): inconclusive
- AC50 (Cytochrome P450 3A4): 12.6 µM (inconclusive) and 31.6 µM (inconclusive)
- AC50 [7]: 35.5 µM (inconclusive)
- AC50 (Cytochrome P450 2C9 [9]): 39.8 µM (inconclusive)

SMILES: CNC(=O)c1cc(Nc2nnc(-c3ccc(O)cc3)c3ccccc23)ccc1OC
- IC50 [10]: > 80 µM (inactive)
- AC50 [11]: 3.86 µM (active)

SMILES: CO[C@H](CN(C)S(=O)(=O)c1ccc(Cl)cc1)[C@H](C)CN([C@@H](C)CO)S(=O)(=O)c1cccc(Cl)c1
- AC50 [12]: 3.31 µM (active)
- AC50 [1]: 3.66 µM (active)
- AC50 [2]: 17.6 µM (active)

SMILES: C[C@@H]1CN([C@H](C)CO)C(=O)Cc2cc(NC(=O)Nc3ccc(C(F)(F)F)cc3)ccc2O[C@@H]1CN(C)Cc1ccc(C(=O)Nc2ccccc2N)cc1
- AC50 [13]: 2.41 µM (active)

SMILES: CC1CCCCC1NC(=O)/C(C#N)=C/c1ccccc1F (configuration not stated)
- AC50 [14]: 0.94 µM (active)
- AC50 [3]: 5.53 µM (active)
- AC50 [15]: 14.4 µM (active)
- CC50 [16]: 21.3 µM (active)

SMILES: O=C(Nc1nc(-c2ccccn2)cs1)c1ccccc1-n1cnnn1
- AC50 (INS1): 1.3 µM (active)
- EC50 [17]: 1.93 µM (active)
- AC50 [18]: 2.75 µM (active)
- IC50 (Nonstructural protein 1): 5.44 µM (active)
- EC50 (cells [19]): 10.6 µM (active)
- AC50 [20]: 5.46 µM (active)
- AC50 [15]: 6.96 µM (active)
- AC50 [21]: 1.71 µM (active)
- EC50 [22]: 4.31 µM (active)
- IC50 (H9c2): > 79 µM (inactive)
- EC50 (cells [23]): 64.3 µM (active)

SMILES: COC(=O)c1ccc(NC(=O)CSC2=NCCN2)cc1
- IC50 [24]: > 100 µM (active)

SMILES: O=NN(CCO)CCO [N-NITROSODOETHANOLAMINE]
- AC50 [7]: 3.16 µM (inconclusive)

SMILES: CC(=O)c1cn(CCOc2cc(C)ccc2C)c2ccccc12
- AC50 (INS1): 3.62 µM (active)
- AC50 [18]: 2.03 µM (active)
- IC50 [10]: > 80 µM (inactive)
- AC50 [20]: 2.19 µM (active)
- AC50 [21]: 1.18 µM (active)

SMILES: N#Cc1ccccc1COc1ccc(/C=C/C(=O)O)cc1
- IC50 [10]: > 80 µM (inactive)
